41 molecules from PubChem BioAssay AID1996 can be followed below.

Molecules are shown by their SMILES. Values after ≈ are worked out from the molar mass of the structure shown.

The conditions of this data set: buffer; pH 7.4; 200.0 µM.
As for `COCCn1c(N)c(N(Cc2ccccc2)C(=O)Cc2ccccc2F)c(=O)[nH]c1=O`, the solubility (kinetic) was 62.9 µg/mL (≈ 147 µM).

`O=C(Nc1cccc(C(=O)Nc2ccc(F)cc2F)c1)c1ccccc1` came in with a solubility (kinetic) of 0.4 µg/mL (≈ 1.14 µM).

For the molecule `CCOc1ccc2nc(SCC(=O)NC3CC3)sc2c1`, the kinetic solubility is 13.1 µg/mL (≈ 42.5 µM). Against the preceding molecule, the solubility kinetic is about 33-fold higher.

With `Cc1ccc(C)c(SCC(=O)N(C)C2CCS(=O)(=O)C2)c1` (stereo unspecified), the solubility (kinetic) is above 49.1 µg/mL.

Turning to `O=C(CSC(=S)N1CCOCC1)Nc1ncc2c(n1)CCCC2=O`, the solubility (kinetic) is 54.7 µg/mL (≈ 149 µM).

With `Cc1nnc(SC(C)C#N)n1-c1ccccc1` (stereo unspecified), the solubility (kinetic) is above 36.6 µg/mL.

For `O=C(CS(=O)c1ccc(Br)cc1)N1CCOCC1` (stereo unspecified), the kinetic solubility is 49.4 µg/mL (≈ 149 µM).

Consider `Cc1cc(C(=O)OCC(=O)NCc2ccccc2Cl)c(C)o1`, for which the solubility (kinetic) turned out to be 2.2 µg/mL (≈ 6.84 µM).

`C=C1c2cc3c(cc2NC(=S)N1Cc1ccccc1)OCO3` gave a solubility (kinetic) of 9.8 µg/mL (≈ 31.6 µM).

`CCCc1c(O)nc(SCC(=O)NCc2ccco2)[nH]c1=O` came in with a kinetic solubility above 48.5 µg/mL.

Molecule `COc1ccccc1NS(=O)(=O)c1cc(NC(=O)COc2ccccc2F)ccc1N1CCOCC1` returned a solubility (kinetic) of 2.4 µg/mL (≈ 4.66 µM).

As for `COc1ccccc1NC(=O)c1ccc(S(=O)(=O)N(C)c2ccccc2OC)cc1`, the kinetic solubility was 7 µg/mL (≈ 16.4 µM).

`Cc1ccc(CNC(=O)CNC(=O)c2ccc(Br)o2)cc1`: the kinetic solubility was determined as 14.6 µg/mL (≈ 41.6 µM).

For the molecule `Cc1cc(C)nc(NC(=O)c2cccc(Br)c2)n1`, the kinetic solubility amounted to 39.8 µg/mL (≈ 130 µM). This solubility kinetic is about 2.7-fold higher than that of the molecule before.

`O=C(Nc1ccsc1C(=O)O)c1cccc(Oc2ccccc2)c1` displayed a kinetic solubility of 43.2 µg/mL (≈ 127 µM).

On to `CC(C)Cc1nnc(NC(=O)CCC(=O)N2CCCCC2)s1`, for which the solubility (kinetic) was above 48.7 µg/mL.

Turning to `O=C(CSc1ncccn1)NCCC1=CCCCC1`, the kinetic solubility is above 41.6 µg/mL.

The molecule `CCOC(=O)CCCc1ccc(/C(C)=N/NC(N)=S)cc1` displayed a kinetic solubility above 46.1 µg/mL.

The molecule `Cc1c(C(=O)NC2CCCCC2)oc2ccccc12` registered a solubility (kinetic) of 5.3 µg/mL (≈ 20.6 µM).

Molecule `Cc1ccc(NC(=O)N2CCN(c3ncccc3C(F)(F)F)CC2)cc1` yielded a solubility (kinetic) of 1.5 µg/mL (≈ 4.12 µM).

On to `CCCn1c(C)nnc1SCC(=O)NC1CCCCC1`, for which the kinetic solubility is above 44.5 µg/mL.

Take `N#C/C(C(N)=O)=C1/CCCN1Cc1ccccc1`: the kinetic solubility was above 36.2 µg/mL.

`CC(C)C(OC(=O)c1ccc(Cl)nc1)C(=O)NC1CCCCC1` (stereo unspecified) yielded a kinetic solubility of 29.7 µg/mL (≈ 87.7 µM).

The molecule `CC(=O)C1=C(C)NC(=O)CC1c1ccc(F)cc1` (stereo unspecified) yielded a kinetic solubility above 37.1 µg/mL.

As for `CC(Oc1ccc(F)cc1)C(=O)N1CCN(c2ncccn2)CC1` (stereo unspecified), the kinetic solubility is above 49.6 µg/mL.

As to `CCCCCCOc1ccc(C(CC(=O)NC)C(=O)O)cc1` (stereo unspecified), the kinetic solubility is above 46.1 µg/mL.

`CC1CN(C(=O)c2cc3cc([N+](=O)[O-])ccc3s2)CC(C)O1` (stereo unspecified) gave a solubility (kinetic) of 18.5 µg/mL (≈ 57.7 µM).

As to `CCOC(=O)c1ccc(NC(=O)Nc2ncccc2C)cc1`, the solubility (kinetic) was determined as 0.6 µg/mL (≈ 2 µM).

Molecule `O=C(CSCc1ccc(C(=O)O)cc1)Nc1ccc2ccccc2c1` returned a kinetic solubility above 52.7 µg/mL.

Regarding `CC(=O)Nc1ccc(S(=O)(=O)Nc2nc(C)nc3sc(C)c(C)c23)cc1`, the solubility (kinetic) was above 58.6 µg/mL.

For the molecule `CC(OC(=O)c1ccco1)C(=O)Nc1ncc(Cl)cc1Cl` (stereo unspecified), the solubility (kinetic) stood at 49.2 µg/mL (≈ 149 µM).

On to `COc1ccc(NC(=S)Nc2cccnc2)c(OC)c1`, for which the kinetic solubility turned out to be 42.5 µg/mL (≈ 147 µM). The solubility kinetic values of the last two molecules are within 1.5-fold of each other.

`O=C(Nc1nccs1)c1ccc(Br)s1`: the kinetic solubility was 5.6 µg/mL (≈ 19.4 µM). Compared with the last molecule, the solubility kinetic is about 7.6-fold lower.

For `N#Cc1c(NC(=O)CCC(=O)O)sc2c1CCCCC2`, the solubility (kinetic) is above 43.9 µg/mL.

With `CCOC(=O)Cn1cc(C#N)c(=O)[nH]c1=O`, the solubility (kinetic) is above 33.5 µg/mL.

`CC1CCN(CC(=O)NC2CCCCC2)CC1.Cl` registered a kinetic solubility of 37.4 µg/mL.

`CC(C)CCN1CCN(Cc2nc3ccccc3s2)CC1CCO` (stereo unspecified) came in with a kinetic solubility above 52.1 µg/mL.

With `Cc1cccc(C2=NOC(=O)/C2=C\c2ccccc2F)c1`, the kinetic solubility was 6.5 µg/mL (≈ 23.1 µM).

Molecule `COc1ccc(OC2CCN(C(=O)Nc3ccc(C)cc3)CC2)cc1` showed a solubility (kinetic) of 0.4 µg/mL (≈ 1.18 µM).

For the molecule `CC1(C)CC(=O)C=C(Nc2ccc(C(=O)O)c(O)c2)C1`, the kinetic solubility was above 41.3 µg/mL.

Take `O=C(NCc1ccccc1Cl)[C@@H]1CCCN1S(=O)(=O)c1ccc(Cl)cc1`: the solubility (kinetic) was found to be 38.4 µg/mL (≈ 92.9 µM).

The term solubility (kinetic) denotes the concentration staying in solution when a stock, usually in DMSO, is diluted into the medium.
